The text below walks through data of publication PMC7190724, “Improved GPCR ligands from nanobody tethering” (Nature Communications, 2020).

For test [1], the target named is T1, PTHR1GFP (Homo sapiens, UniProt Q03431).
T1 sequence (Q03431 27-593): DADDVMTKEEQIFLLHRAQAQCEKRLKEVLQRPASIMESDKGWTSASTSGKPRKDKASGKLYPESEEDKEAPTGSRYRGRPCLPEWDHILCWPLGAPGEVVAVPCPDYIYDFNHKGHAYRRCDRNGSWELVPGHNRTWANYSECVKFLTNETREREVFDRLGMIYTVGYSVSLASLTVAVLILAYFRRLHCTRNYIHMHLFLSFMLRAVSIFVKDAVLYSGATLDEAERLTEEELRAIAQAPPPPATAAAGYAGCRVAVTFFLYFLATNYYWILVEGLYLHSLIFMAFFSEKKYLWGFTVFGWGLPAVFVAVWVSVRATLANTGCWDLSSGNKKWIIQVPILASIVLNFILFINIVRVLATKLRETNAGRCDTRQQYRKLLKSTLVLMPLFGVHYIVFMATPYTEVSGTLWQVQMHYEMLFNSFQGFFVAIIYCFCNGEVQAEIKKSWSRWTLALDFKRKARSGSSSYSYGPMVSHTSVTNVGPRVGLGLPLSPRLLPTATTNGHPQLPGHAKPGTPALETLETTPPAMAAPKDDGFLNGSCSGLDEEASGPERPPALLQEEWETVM
In words: cAMP response (GloSensor luminescence), HEK293 stably expressing PTHR1GFP (GPG10). The test is classed as cell-based. The procedure: (§1) These assays were performed as previously described. Briefly, HEK-293-derived cell lines that stably express the Glosensor cAMP reporter (Promega Corp.)[30] and PTHR1, a PTHR1 variant, or PTHR2 were seeded into white sided 96-well plates (50,000 cells/well) and grown to confluency. Confluent monolayers of cells were pre-incubated with CO2 independent medium containing D-luciferin (0.5 mM) at 37 °C until a stable baseline level of luminescence was established (20 min). Varying concentrations of ligands were then added, and the time course of luminescence response was recorded using BioTek plate reader. The maximal luminescence response (observed 12–16 min after ligand addition) was used to construct dose-response data sets (Table 1, Supplementary Fig. 6).
(§2) Data were processed using Microsoft Excel and GraphPad Prism 6. Data from cAMP dose–response assays were analyzed using a sigmoidal dose–response model with variable slope. Data sets were statistically compared by using Student’s t test (two-tailed) assuming unequal variances for the two sets.
Supplementary Figure 1. […]
GFP variant known as pHluorin2 engrafted into the receptor(ref. 19, main text). c) HEK293 cells stably expressing PTHR1-GFP were treated with varied doses of the indicated peptides or conjugates and activation was assessed by measuring luminescence from a cAMP-activated luciferase variant. Values listed represent EC50 values (mean ± SD). Each value comes from ≥ 3 independent experiments. Further details, including the number of replicates for each measurement and the normalized maximal responses induced, are reported in Supplementary Table 1. […]
than 5% of the maximal response induced for that cell line.
Peptide or conjugate PTHR1GFP

In another test the target is T2, PTHR1_6E (Homo sapiens, UniProt Q03431).
T2 sequence (Q03431 106-593 limits assumed): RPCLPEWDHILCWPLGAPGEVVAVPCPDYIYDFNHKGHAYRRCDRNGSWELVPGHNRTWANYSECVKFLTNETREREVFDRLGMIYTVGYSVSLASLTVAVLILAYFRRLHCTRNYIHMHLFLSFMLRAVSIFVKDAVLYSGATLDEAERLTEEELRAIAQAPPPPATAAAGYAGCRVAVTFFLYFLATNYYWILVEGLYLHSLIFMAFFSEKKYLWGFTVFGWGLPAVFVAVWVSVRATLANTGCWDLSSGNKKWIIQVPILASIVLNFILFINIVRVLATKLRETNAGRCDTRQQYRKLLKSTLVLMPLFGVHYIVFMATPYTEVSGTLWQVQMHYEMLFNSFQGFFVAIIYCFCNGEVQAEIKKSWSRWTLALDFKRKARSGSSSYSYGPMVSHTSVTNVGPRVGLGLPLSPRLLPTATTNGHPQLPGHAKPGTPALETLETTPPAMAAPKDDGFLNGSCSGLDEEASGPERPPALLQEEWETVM
The test can be described thus: cAMP response (GloSensor luminescence), HEK293 stably expressing PTHR1_6E. The test is classed as cell-based. The conditions noted are these: peak GloSensor luminescence; mean ± SD, ≥3 independent experiments; read-out: EC50, cAMP induction. The procedure: (§3) A HEK293 cell line stably expressing β-Arrestin2-YFP (GBR24) was constructed similarly. PTHR1_6E was produced using the Q5 Site-directed mutagenesis kit (NEB) and used to prepare a stably transfected HEK293-derived cell line. Annotated sequence data for all PTHR1 constructs are found in Supplementary Fig. 19. Aligned sequences of VHHs used in this study are shown in Supplementary Fig. 20.
(§4) These assays were performed as previously described. […] Confluent monolayers of cells were pre-incubated with CO2 independent medium containing D-luciferin (0.5 mM) at 37 °C until a stable baseline level of luminescence was established (20 min). Varying concentrations of ligands were then added, and the time course of luminescence response was recorded using BioTek plate reader.
as §2

The next test has as its target T3, hPTHR1 (Homo sapiens, UniProt Q03431).
T3 construct: expressed in transfected cells; host or cells: HEK293 (clone GP2.3) with GloSensor cAMP reporter
T3 sequence (Q03431 27-593): T1 sequence (Q03431 27-593)
In words: cAMP response (GloSensor luminescence), HEK293 stably expressing human PTHR1 (GP2.3). The test is classed as cell-based. The note with it: peak GloSensor luminescence 12–16 min after ligand; mean ± SD, ≥3 independent experiments; highest conc. 100 nM conjugates, 10,000 nM peptides; read-out: EC50, cAMP induction. The procedure: as §3, §4, §2

The target of test [2] is T4, PTHR1YFPΔECD (Homo sapiens, UniProt Q03431).
T4 construct: expressed in transfected cells; host or cells: HEK293 (clone GD5Y) with GloSensor cAMP reporter
T4 sequence (Q03431 with tags, fused parts or gaps limits assumed): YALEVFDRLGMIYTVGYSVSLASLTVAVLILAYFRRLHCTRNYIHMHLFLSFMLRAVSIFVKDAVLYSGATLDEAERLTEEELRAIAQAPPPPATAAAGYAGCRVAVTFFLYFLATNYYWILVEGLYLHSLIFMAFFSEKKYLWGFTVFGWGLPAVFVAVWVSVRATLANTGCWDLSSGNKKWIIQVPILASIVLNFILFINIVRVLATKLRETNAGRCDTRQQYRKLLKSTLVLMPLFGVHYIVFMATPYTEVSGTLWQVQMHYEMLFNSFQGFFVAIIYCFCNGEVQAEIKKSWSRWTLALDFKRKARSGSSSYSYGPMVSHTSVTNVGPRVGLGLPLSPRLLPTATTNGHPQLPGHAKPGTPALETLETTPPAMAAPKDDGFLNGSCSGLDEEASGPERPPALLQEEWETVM
The test can be described thus: cAMP response (GloSensor luminescence), HEK293 stably expressing PTHR1YFPΔECD (GD5Y). The test is classed as cell-based. The conditions noted are these: peak GloSensor luminescence; mean ± SD, ≥3 independent experiments; read-out: EC50, cAMP induction. On the procedure: as §3, §4, §2

A further test concerns the target T5, hPTHR2 (Homo sapiens, UniProt P49190).
T5 construct: expressed in transfected cells
The test can be described thus: cAMP response (GloSensor luminescence), HEK293 stably expressing hPTHR2. The test is classed as cell-based. The note with it: peak GloSensor luminescence; mean ± SD, n = 3-4; read-out: EC50, cAMP induction. The procedure:
as §1, §2

For test [3], the target named is T1, PTHR1GFP. In words: Flow cytometry binding of VHH-Alexafluor647 to HEK293 expressing PTHR1GFP. The note with it: 100 nM VHH-Alexafluor647, on ice. The procedure:
(§5) Suspensions of cells in PBS were stained for 1 h on ice in the presence of indicated concentrations of VHH probes functionalized with Alexafluor647. Cells were pelleted by centrifugation and washed with PBS prior to analysis by flow cytometry (BD Accuri C6). To select intact cells gating was performed on forward scatter/side scatter profiles for analysis (see Supplementary Fig. 4 for an example of the gating strategy). Data were analyzed using FlowJo version 7.6. The median fluorescent intensity (MFI) of stained cells was used to generate VHH binding dose response curves (Supplementary Fig. 4).
Supplementary Figure 1. […] HEK293 cell lines in suspension were incubated on ice with 100 nM VHH sortagged with Alexafluor647, pelleted by centrifugation, washed and analyzed. […]
PTHR1GFP. This weak staining is likely related to the inability of VHHGFP to tightly bind the pH-sensitive GFP variant known as pHluorin2 engrafted into the receptor(ref. 19, main text). c) HEK293 cells stably expressing PTHR1-GFP were treated with varied doses of the indicated peptides or conjugates and activation was assessed by measuring luminescence from a cAMP-activated luciferase variant. […]
Supplementary Figure 4. […] Cells were centrifuged, washed, and analyzed by flow cytometry via gating of intact cells (live gate) based on forward scatter/side scatter profiles (panel a). […]
For orientation: A flow cytometer gives signals particle by particle.

Test [4] has as its target T4, PTHR1YFPΔECD. In words: Flow cytometry binding of VHH-Alexafluor647 to HEK293 expressing PTHR1YFPΔECD. The procedure: as §5
Supplementary Figure 4. Assessment of VHH binding to PTHR1 variants by flow cytometry. Cells dislodged from tissue culture plates using trypsinization were incubated with varied concentrations of VHHs sortagged with AlexaFluor647 on ice for 1 h. Cells were centrifuged, washed, and analyzed by flow cytometry via gating of intact cells (live gate) based on forward scatter/side scatter profiles (panel a). (b) Data points represent median fluorescent intensity values ( individual data points shown, n = 2 independent replicates per condition). Connecting curves are the result of fitting a sigmoidal dose - response model to the data points. Precise estimates for VHH PTHR binding cannot be provided since the […]
(1 picture or pasted object on this page, not shown here)

Read-outs that look alike come from different tables or passages of the source. Where a SMILES comes first, the peptide text is derived from it. [ ]: non-standard residue; d: D form. Aib = CC(C)(N)C(=O)O

T5 sequence (P49190 25-550): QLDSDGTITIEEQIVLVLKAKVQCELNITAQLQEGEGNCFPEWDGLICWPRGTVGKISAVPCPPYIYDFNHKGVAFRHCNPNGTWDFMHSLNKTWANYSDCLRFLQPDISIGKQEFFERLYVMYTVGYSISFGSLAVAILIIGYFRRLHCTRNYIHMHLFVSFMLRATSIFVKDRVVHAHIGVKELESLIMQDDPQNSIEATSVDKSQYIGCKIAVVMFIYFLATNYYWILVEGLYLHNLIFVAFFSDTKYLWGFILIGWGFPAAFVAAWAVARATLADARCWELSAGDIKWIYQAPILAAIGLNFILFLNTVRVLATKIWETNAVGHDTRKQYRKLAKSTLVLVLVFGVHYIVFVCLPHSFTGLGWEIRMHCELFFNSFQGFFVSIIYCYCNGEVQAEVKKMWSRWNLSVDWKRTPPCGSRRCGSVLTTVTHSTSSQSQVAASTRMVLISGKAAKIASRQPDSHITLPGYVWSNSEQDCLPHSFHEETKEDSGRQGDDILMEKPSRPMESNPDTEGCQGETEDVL

Take `CC[C@H](C)[C@H](NC(=O)[C@H](CCC(=O)O)NC(=O)C(C)(C)NC(=O)[C@@H](NC(=O)[C@H](C)N)C(C)C)C(=O)N[C@@H](CCC(N)=O)C(=O)N[C@@H](CC(C)C)C(=O)N[C@@H](CCSC)C(=O)N[C@@H](Cc1c[nH]cn1)C(=O)N[C@@H](CCC(N)=O)C(=O)N[C@@H](CS)C(N)=O` [PTH(1-10)] (H-AV[Aib]EIQLMHQC-NH2): the EC50 amounted to 2550 ± 653 nM at PTHR1GFP [1] (peak GloSensor luminescence, mean ± SD, ≥3 independent experiments, read-out: EC50, cAMP induction); 5080 nM on PTHR1_6E; 3120 nM on hPTHR1; 3840 nM at PTHR1YFPΔECD [2].

Turning to `CC[C@H](C)[C@H](NC(=O)[C@H](CCC(=O)O)NC(=O)C(C)(C)NC(=O)[C@@H](NC(=O)[C@H](C)N)C(C)C)C(=O)N[C@@H](CCC(N)=O)C(=O)N[C@@H](CC(C)C)C(=O)N[C@@H](CCSC)C(=O)N[C@@H](Cc1c[nH]cn1)C(=O)N[C@@H](CCC(N)=O)C(=O)N[C@@H](CCCNC(=N)N)C(=O)N[C@@H](C)C(=O)N[C@@H](CCCCN)C(=O)N[C@@H](Cc1c[nH]c2ccccc12)C(=O)N[C@@H](CS)C(N)=O` [PTH(1-14)] (H-AV[Aib]EIQLMHQRAKWC-NH2), the 50% effective concentration (EC50) on PTHR1GFP [1] stood at 2.3 ± 1.2 nM; on PTHR1_6E it was 3.4 nM; at hPTHR1, 4.3 nM; on PTHR1YFPΔECD [2], 1.1 nM; at hPTHR2 it was 924 ± 328 nM.

On to “VHHGFP: nanobody recognizing green or yellow fluorescent proteins (named VHH-enhancer)”, for which the “staining of cells” value in the test with PTHR1GFP [3] is “only weakly stained”; in the test with PTHR1YFPΔECD [4] (100 nM VHH-Alexafluor647, on ice) it was “stained”. The half-maximal staining concentration with PTHR1YFPΔECD [4] (flow cytometry MFI, VHH-Alexafluor647, 1 h on ice) is < 10 nM.

Usually EC50 stands for the concentration needed to bring the measured effect to its halfway point.
